Test results reported in patent US20160304552A1, “MODIFIED NUCLEIC ACID MOLECULES AND USES THEREOF” (MODERNA THERAPEUTICS, INC., priority 2013, published 2016).

Experiments:
T7 RNA polymerase = T7 RNA polymerase (Escherichia phage T7, UniProt P00573); test: In vitro transcription yields of modified mRNA; format: biochemical; settings: for EPO In Vitro Transcription yield: EPO mRNA made with the modified NTP(s); for GCSF In Vitro Transcription yield: GCSF mRNA made with the modified NTP(s); for Luc In Vitro Transcription yield: Luciferase mRNA made with the modified NTP(s)
Experimental: The in vitro transcription reaction generates mRNA containing modified nucleotides or modified RNA. The input nucleotide triphosphate (NTP) mix is made in-house using natural and unnatural NTPs.
A typical in vitro transcription reaction includes the following:
Incubation at 37° C. for 3 hr-5 hrs.
The crude IVT mix may be stored at 4° C. overnight for cleanup the next day. 1 U of RNase-free DNase is then used to digest the original template. After 15 minutes of incubation at 37° C., the mRNA is purified using Ambion's […]™ Kit (Austin, Tex.) following the manufacturer's instructions. This kit can purify up to 500 μg of RNA. Following the cleanup, the RNA is quantified using the NanoDrop and analyzed by agarose gel electrophoresis to confirm the RNA is the proper size and that no degradation of the RNA has occurred.
Modified mRNAs in TE buffer (1 μl) are used for Nanodrop UV absorbance readings to quantitate the yield of each modified mRNA from an in vitro transcription reaction (UV absorbance traces are not shown).

[1] = tested on: Rabbit Reticulocyte Lysate; test: In vitro translation screen, firefly Luciferase modRNA (luciferase assay, relative light units); format: biochemical; settings: Table 20; 250 ng modRNA, 45 min, 30° C.
Experimental: (§1) The in vitro translation assay was done with the Rabbit Reticulocyte Lysate (nuclease-treated) kit (Promega, Madison, Wis.; Cat. #L4960) according to the manufacturer's instructions. The reaction buffer was a mixture of equal amounts of the amino acid stock solutions devoid of Leucine or Methionine provided in the kit.
(§2) The modRNAs of firefly Luciferase, human GCSF and human EPO, harboring chemical modifications on either the bases or the ribose units, were diluted in sterile nuclease-free water to a final concentration of 250 ng in 2.5 ul (Stock 100 ng/μl). The modRNA (250 ng) was added to the mixture of freshly prepared Rabbit Reticulocyte Lysate and reaction buffer.
After 45 min incubation, the reaction was stopped by placing the plate on ice. Aliquots of the in vitro translation reaction containing luciferase modRNA were transferred to white opaque polystyrene 96-well plates (Corning, Manassas, Va.; Cat. # CLS3912) and combined with 100 ul complete luciferase assay solution (Promega, Madison, Wis.). The volumes of the in vitro translation reactions were adjusted or diluted until no more than 2 million relative light units per well were detected for the strongest signal producing samples. […] The plate reader was a BioTek Synergy H1 (BioTek, Winooski, Vt.).

[2] = tested on: Rabbit Reticulocyte Lysate; test: In vitro translation screen, human GCSF modRNA (GCSF ELISA); format: biochemical; settings: Table 20; 250 ng modRNA, 45 min, 30° C.
Experimental: as §1, §2
(§3) Aliquots of the in vitro translation reaction containing human GCSF modRNA or human EPO mRNA were transferred and analyzed with a human GCSF-specific or EPO ELISA kit (both from R&D Systems, Minneapolis, Minn.; Cat. #s SCS50, DEP00 respectively) according to the manufacturer instructions. All samples were diluted until the determined values were within the linear range of the human GCSF or EPO ELISA standard curve.

[3] = tested on: Rabbit Reticulocyte Lysate; test: In vitro translation screen, human EPO modRNA (EPO ELISA); format: biochemical; settings: Table 20; 250 ng modRNA, 45 min, 30° C.
Experimental: as §1, §2, §3

HeLa cells [4] = test: Transfection in HeLa cells, human GCSF modRNA (GCSF ELISA of supernatant); format: cell-based; settings: Table 22, 250 ng modRNA, 18 h to 22 h
Experimental: (§4) The day before transfection, 20.000 HeLa cells (ATCC no. CCL-2; Manassas, Va.) were harvested by treatment with Trypsin-EDTA solution (LifeTechnologies, Grand Island, N.Y.) and seeded in a total volume of 100 ul EMEM medium (supplemented with 10% FCS and 1× Glutamax) per well in a 96-well cell culture plate (Corning, Manassas, Va.). The cells were grown at 37° C. in 5% CO2 atmosphere overnight. Next day, 83 ng of Luciferase modRNA or 250 ng of human GCSF modRNA, harboring chemical modifications on the bases or the ribose units, were diluted in 10 ul final volume of OPTI-MEM (LifeTechnologies, Grand Island, N.Y.). Lipofectamine 2000 (LifeTechnologies, Grand Island, N.Y.) was used as transfection reagent and 0.2 μl were diluted in 10 ul final volume of OPTI-MEM. After 5 min incubation at room temperature, both solutions were combined and incubated additional 15 min at room temperature. Then the 20 μl were added to the 100 ul cell culture medium containing the HeLa cells. The plates were then incubated as described before.
(§5) After 18 h to 22 h incubation, cell culture supernatants of cells expressing human GCSF or human EPO were collected and centrifuged at 10.000 rcf for 2 min. The cleared supernatants were transferred and analyzed with a human GCSF-specific or EPO ELISA kit (both from R&D Systems, Minneapolis, Minn.; Cat. #s SCS50, DEP00, respectively) according to the manufacturer instructions. All samples were diluted until the determined values were within the linear range of the human GCSF or EPO ELISA standard curve.

HeLa cells [5] = test: Transfection in HeLa cells, human EPO modRNA (EPO ELISA of supernatant); format: cell-based; settings: Table 22, 18 h to 22 h
Experimental: as §4, §5

HeLa cells [6] = test: Transfection in HeLa cells, Luciferase modRNA (luciferase assay, relative light units); format: cell-based, human; settings: Table 22, 83 ng modRNA, Lipofectamine 2000, 18 h to 22 h
Experimental: as §4
After 18 h to 22 h incubation, cells expressing luciferase were lysed with 100 μl Passive Lysis Buffer (Promega, Madison, Wis.) according to manufacturer instructions. Aliquots of the lysates were transferred to white opaque polystyrene 96-well plates (Corning, Manassas, Va.) and combined with 100 ul complete luciferase assay solution (Promega, Madison, Wis.). The lysate volumes were adjusted or diluted until no more than 2 mio relative light units per well were detected for the strongest signal producing samples. […] The plate reader was a BioTek Synergy H1 (BioTek, Winooski, Vt.).

Sequence of T7 RNA polymerase (P00573 whole entry): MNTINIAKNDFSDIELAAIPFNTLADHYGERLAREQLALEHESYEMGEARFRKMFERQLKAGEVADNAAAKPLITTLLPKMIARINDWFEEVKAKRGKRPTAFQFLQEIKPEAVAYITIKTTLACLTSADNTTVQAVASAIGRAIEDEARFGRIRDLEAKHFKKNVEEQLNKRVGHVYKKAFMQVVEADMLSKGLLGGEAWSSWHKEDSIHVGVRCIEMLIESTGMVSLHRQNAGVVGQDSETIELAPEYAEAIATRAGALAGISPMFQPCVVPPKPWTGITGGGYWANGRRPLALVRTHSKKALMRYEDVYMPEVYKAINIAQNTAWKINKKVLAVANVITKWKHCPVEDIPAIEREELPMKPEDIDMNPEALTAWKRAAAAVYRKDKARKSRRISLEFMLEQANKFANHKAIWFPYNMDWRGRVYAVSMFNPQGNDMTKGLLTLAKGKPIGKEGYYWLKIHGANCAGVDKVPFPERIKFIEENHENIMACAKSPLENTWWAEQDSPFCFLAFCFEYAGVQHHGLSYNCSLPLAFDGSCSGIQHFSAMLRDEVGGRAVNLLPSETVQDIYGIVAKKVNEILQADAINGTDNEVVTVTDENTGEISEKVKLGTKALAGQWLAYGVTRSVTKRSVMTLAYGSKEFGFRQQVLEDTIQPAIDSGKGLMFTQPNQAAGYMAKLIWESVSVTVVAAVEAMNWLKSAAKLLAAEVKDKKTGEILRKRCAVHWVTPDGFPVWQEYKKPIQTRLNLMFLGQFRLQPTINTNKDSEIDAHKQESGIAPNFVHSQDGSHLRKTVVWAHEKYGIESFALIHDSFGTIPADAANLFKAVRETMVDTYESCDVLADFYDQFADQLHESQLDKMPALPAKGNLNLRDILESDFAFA

Compound	EPO In Vitro Transcription yield (T7 RNA polymerase)	GCSF In Vitro Transcription yield (T7 RNA polymerase)	Luc In Vitro Transcription yield (T7 RNA polymerase)	Luc Expression (RLUs) [1]	GCSF Expression [2]	Epo Expression [3]	GCSF Expression (HeLa cells [4])	Epo Expression (HeLa cells [5])	Luc Expression (RLUs) (HeLa cells [6])
CCCn1cc([C@@H]2O[C@H](COP(=O)(O)OP(=O)(O)OP(=O)(O)O)C(O)C2O)c(=O)[nH]c1=O (stereo in doubt) [03601015004 (173), 1-Propyl-pseudo-UTP]	0.9920 mg	0.5976 mg	0.4971 mg	140 RLUs	1613 pg/mL	838 pg/mL	10000 pg/mL	0.00 pg/mL	
Nc1ccn([C@@H]2O[C@H](COP(O)(=S)OP(=O)(O)OP(=O)(O)O)C(O)C2O)c(=O)n1 (stereo in doubt) [Compound 00902014001, Alpha-thio-CTP]	0.2669 mg	0.2650 mg	0.3352 mg	142900 RLUs	26930 pg/mL	17000 pg/mL	285000.00 pg/mL	195400 pg/mL	1845 RLUs
O=c1ccn([C@@H]2O[C@H](COP(=O)(O)OP(=O)(O)OP(=O)(O)O)C(O)C2O)c(=S)[nH]1 (stereo in doubt) [Compound 00901013008, 2-Thio-UTP]	0.3630 mg	0.3359 mg	0.2792 mg	1181 RLUs	3744 pg/mL	1894 pg/mL	214300 pg/mL	182600 pg/mL	423.00 RLUs
CCn1cc([C@@H]2O[C@H](COP(=O)(O)OP(=O)(O)OP(=O)(O)O)C(O)C2O)c(=O)[nH]c1=O (stereo in doubt) [03601015003 (172), 1-Ethyl-pseudo-UTP]	1.095 mg	0.5464 mg	0.6304 mg	122 RLUs	5700 pg/mL	7894 pg/mL	209300 pg/mL	52780 pg/mL	130.50 RLUs
NC/C=C/c1cn([C@@H]2O[C@H](COP(=O)(O)OP(=O)(O)OP(=O)(O)O)C(O)C2O)c(=O)nc1N (stereo in doubt) [03601014009 (381), 5-Aminoallyl-CTP]	0.4943 mg	0.4567 mg	0.3471 mg	887 RLUs	1806 pg/mL	169 pg/mL	24290 pg/mL	3488 pg/mL	319.00 RLUs
NC/C=C/c1cn([C@@H]2O[C@H](COP(=O)(O)OP(=O)(O)OP(=O)(O)O)C(O)C2O)c(=O)[nH]c1=O (stereo in doubt) [Compound 00901013010, 5-Aminoallyl-UTP]	0.3732 mg	0.4206 mg	0.3513 mg	14870 RLUs	3706 pg/mL	1863 pg/mL	40710 pg/mL	67440 pg/mL	1946 RLUs
Nc1ncc2ncn([C@@H]3O[C@H](COP(=O)(O)OP(=O)(O)OP(=O)(O)O)C(O)C3O)c2n1 (stereo in doubt) [03601012004 (382), 2-Aminopurine-riboside TP]	0.0125 mg	0.2919 mg	0.0690 mg	107000 RLUs	8675 pg/mL	22180 pg/mL	39290 pg/mL	56980 pg/mL	713.50 RLUs
Nc1nc(=O)n([C@@H]2O[C@H](COP(=O)(O)OP(=O)(O)OP(=O)(O)O)C(O)C2O)cc1C(F)(F)F (stereo in doubt) [00901014003 (351), 5-Trifluoromethyl-CTP]	0.7886 mg	0.7710 mg	0.5097 mg	23340 RLUs	31510 pg/mL	10200 pg/mL	1039000 pg/mL	668100 pg/mL	32250 RLUs
O=c1ccn([C@@H]2O[C@H](COP(O)(=S)OP(=O)(O)OP(=O)(O)O)C(O)C2O)c(=O)[nH]1 (stereo in doubt) [Compound 00902013001, Alpha-thio-UTP]	0.2666 mg	0.2605 mg	0.3510 mg	51180 RLUs	20530 pg/mL	14260 pg/mL	73570 pg/mL	190700 pg/mL	937.0 RLUs
COC(=O)COc1cn([C@@H]2O[C@H](COP(=O)(O)OP(=O)(O)OP(=O)(O)O)C(O)C2O)c(=O)[nH]c1=O (stereo in doubt) [00901013004 (348), UTP-5-oxyacetic acid Me ester]	0.3859 mg	0.3836 mg	0.6348 mg	162 RLUs	4388 pg/mL	544 pg/mL	5714 pg/mL	8333 pg/mL	
Cc1cn([C@@H]2O[C@H](COP(=O)(O)OP(=O)(O)OP(=O)(O)O)C(O)C2O)c(=S)[nH]c1=O (stereo in doubt) [00901013004 (4), 5-Methyl-2-thio-UTP]	0.8717 mg	0.4682 mg	0.7580 mg	235 RLUs	2319 pg/mL	1100 pg/mL	16420 pg/mL	8333 pg/mL	
